{"source": "patent US20240269139A1", "about": "“COMPOUNDS FOR TARGETED PROTEIN DEGRADATION OF KINASES” (DANA-FARBER CANCER INSTITUTE, INC., priority 2020, published 2024)", "type_in_all_cases": "cell-based", "key": {"[1]": {"target": "protein kinases (human kinome) (Homo sapiens, UniProt Q13882)", "sequence (Q13882 whole entry)": "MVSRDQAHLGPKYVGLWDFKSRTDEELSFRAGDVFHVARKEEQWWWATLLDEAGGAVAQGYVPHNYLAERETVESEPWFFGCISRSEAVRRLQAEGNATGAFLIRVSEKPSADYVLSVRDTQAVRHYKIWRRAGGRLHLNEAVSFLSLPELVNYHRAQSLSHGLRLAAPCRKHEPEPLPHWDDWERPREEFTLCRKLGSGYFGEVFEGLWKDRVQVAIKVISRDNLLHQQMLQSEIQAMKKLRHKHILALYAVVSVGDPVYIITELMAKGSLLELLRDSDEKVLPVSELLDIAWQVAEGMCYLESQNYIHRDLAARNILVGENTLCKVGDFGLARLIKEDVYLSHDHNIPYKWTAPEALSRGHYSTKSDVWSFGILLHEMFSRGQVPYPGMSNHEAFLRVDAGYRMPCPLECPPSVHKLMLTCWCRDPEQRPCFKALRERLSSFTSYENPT", "details": "for logFC PTK6 (Q13882): Experiment wp114, direction of change down; for logFC: PTK6 (Q13882), experiment wp114"}, "[2]": {"target": "T1, protein kinases (human kinome) (Homo sapiens, UniProt P52789)", "T1 sequence (P52789 1-917)": "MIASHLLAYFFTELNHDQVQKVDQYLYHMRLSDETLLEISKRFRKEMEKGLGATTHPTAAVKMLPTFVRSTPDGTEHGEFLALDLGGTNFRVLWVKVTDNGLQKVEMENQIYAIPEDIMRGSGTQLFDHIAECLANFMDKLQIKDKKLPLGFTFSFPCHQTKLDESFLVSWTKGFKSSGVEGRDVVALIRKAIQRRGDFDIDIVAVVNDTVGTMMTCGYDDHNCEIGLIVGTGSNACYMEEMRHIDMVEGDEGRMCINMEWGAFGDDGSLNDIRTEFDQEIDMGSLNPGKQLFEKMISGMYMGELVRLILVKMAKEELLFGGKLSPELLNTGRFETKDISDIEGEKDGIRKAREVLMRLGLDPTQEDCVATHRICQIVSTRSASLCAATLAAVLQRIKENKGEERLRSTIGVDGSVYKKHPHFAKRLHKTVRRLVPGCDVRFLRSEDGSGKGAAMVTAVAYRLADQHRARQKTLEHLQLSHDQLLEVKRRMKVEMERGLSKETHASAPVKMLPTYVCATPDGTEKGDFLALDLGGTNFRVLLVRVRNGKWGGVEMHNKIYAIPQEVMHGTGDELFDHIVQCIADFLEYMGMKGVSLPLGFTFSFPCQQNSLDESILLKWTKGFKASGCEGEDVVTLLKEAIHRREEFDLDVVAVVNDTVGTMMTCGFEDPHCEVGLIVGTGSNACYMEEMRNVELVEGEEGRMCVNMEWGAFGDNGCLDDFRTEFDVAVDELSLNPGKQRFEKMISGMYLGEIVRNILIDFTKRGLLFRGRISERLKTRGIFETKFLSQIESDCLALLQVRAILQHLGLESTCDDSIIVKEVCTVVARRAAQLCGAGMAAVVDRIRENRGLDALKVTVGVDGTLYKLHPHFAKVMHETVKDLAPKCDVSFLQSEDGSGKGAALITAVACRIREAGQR", "details": "HK2 (P52789); experiment wp076"}, "[3]": {"target": "protein kinases (human kinome) (Homo sapiens, UniProt P51617)", "sequence (P51617 whole entry)": "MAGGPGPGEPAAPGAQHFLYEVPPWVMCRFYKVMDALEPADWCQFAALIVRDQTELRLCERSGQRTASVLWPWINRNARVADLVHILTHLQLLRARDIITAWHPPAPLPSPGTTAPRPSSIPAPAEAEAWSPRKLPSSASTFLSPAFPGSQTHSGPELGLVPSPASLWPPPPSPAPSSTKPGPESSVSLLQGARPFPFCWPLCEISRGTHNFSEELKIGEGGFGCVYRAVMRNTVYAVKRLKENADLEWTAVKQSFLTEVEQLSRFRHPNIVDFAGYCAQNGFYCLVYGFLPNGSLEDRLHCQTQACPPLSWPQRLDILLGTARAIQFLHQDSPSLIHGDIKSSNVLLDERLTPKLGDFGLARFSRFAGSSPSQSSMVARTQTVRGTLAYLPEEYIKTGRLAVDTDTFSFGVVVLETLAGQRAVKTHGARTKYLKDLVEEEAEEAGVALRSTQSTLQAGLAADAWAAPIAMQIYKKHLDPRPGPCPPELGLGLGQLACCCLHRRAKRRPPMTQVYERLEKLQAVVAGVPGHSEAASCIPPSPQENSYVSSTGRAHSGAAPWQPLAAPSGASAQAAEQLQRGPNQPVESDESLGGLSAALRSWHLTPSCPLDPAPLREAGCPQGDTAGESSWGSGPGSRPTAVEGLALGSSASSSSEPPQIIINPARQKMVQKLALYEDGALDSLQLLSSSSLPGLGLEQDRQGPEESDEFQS", "details": "IRAK1 (P51617)"}}, "note": "Read-outs that look alike come from different tables or passages of the source.", "data": [{"smiles": "Cc1ncsc1-c1ccc([C@H](C)NC(=O)[C@@H]2C[C@@H](O)CN2C(=O)[C@@H](NC(=O)CCOCCOCCN2CCN(c3ccc(Nc4ncc(Cl)c(Nc5ccccc5S(=O)(=O)C(C)C)n4)cc3)CC2)C(C)(C)C)cc1", "note": "[FMF.06.098.1]", "values": [{"measurement": "logFC PTK6 (Q13882)", "setting": "[1]", "result": "−0.4401"}, {"measurement": "logFC", "setting": "[1]", "result": "−0.4401"}]}, {"smiles": "CNC(=O)c1ccccc1Nc1cc(Nc2ccc(N3CCN(CCOCCOCCNC(=O)CNc4cccc5c4C(=O)N(C4CCC(=O)NC4=O)C5=O)CC3)cc2OC)ncc1C(F)(F)F", "note": "(stereo not drawn) [MFH.5.103.1]", "values": [{"measurement": "logFC", "setting": "[2]", "result": "−0.3819"}]}, {"smiles": "O=C1CCC(N2C(=O)c3cccc(NCCCCCCCCN4CCC(NC(=O)c5[nH]ncc5NC(=O)c5c(Cl)cccc5Cl)CC4)c3C2=O)C(=O)N1", "note": "(stereo not drawn) [MFH.5.126.1]", "values": [{"measurement": "logFC", "setting": "[2]", "result": "−0.322"}]}, {"smiles": "Cc1ccc(C(=O)Nc2ccc(CN3CCN(CCCOCCOCCOCCNC(=O)COc4cccc5c4C(=O)N(C4CCC(=O)NC4=O)C5=O)CC3)c(C(F)(F)F)c2)cc1C#Cc1cnc2cccnn12", "note": "(stereo not drawn) [SB1.G.187]", "values": [{"measurement": "logFC", "setting": "[3]; experiment wp056", "result": "−1.578"}, {"measurement": "logFC", "setting": "[3]; experiment wp056, direction down", "result": "−1.578"}, {"measurement": "logFC", "setting": "[3]; experiment wp103", "result": "−1.504"}, {"measurement": "logFC", "setting": "[3]; experiment wp103, direction down", "result": "−1.504"}, {"measurement": "logFC", "setting": "[3]; experiment wp105", "result": "−1.404"}, {"measurement": "logFC", "setting": "[3]; experiment wp105, direction down", "result": "−1.404"}, {"measurement": "logFC", "setting": "[3]; experiment wp107", "result": "−1.996"}, {"measurement": "logFC", "setting": "[3]; experiment wp107, direction down", "result": "−1.996"}, {"measurement": "logFC", "setting": "[3]; experiment wp172", "result": "−1.572"}, {"measurement": "logFC", "setting": "[3]; experiment wp172, direction down", "result": "−1.572"}]}, {"smiles": "CC(C)S(=O)(=O)c1ccccc1Nc1nc(Nc2ccc(N3CCN(CCOCCNC(=O)CNc4cccc5c4C(=O)N(C4CCC(=O)NC4=O)C5=O)CC3)cc2)ncc1Cl", "note": "(stereo not drawn) [SK.3.91]", "values": [{"measurement": "logFC PTK6 (Q13882)", "setting": "[1]", "result": "−0.4171"}, {"measurement": "logFC", "setting": "[1]", "result": "−0.4171"}]}, {"smiles": "Cc1ccc(C(=O)Nc2ccc(CN3CCN(CCOCCOCCNC(=O)CNc4cccc5c4C(=O)N(C4CCC(=O)NC4=O)C5=O)CC3)c(C(F)(F)F)c2)cc1C#Cc1cnc2cccnn12", "note": "(stereo not drawn) [TL13.150]", "values": [{"measurement": "logFC", "setting": "[3]; experiment wp081", "result": "−2.834"}, {"measurement": "logFC", "setting": "[3]; experiment wp081, direction down", "result": "−2.834"}]}]}
